Experimental data published in patent US20190011433A1, “CELL CO-CULTURE SYSTEMS AND USES THEREOF” (Dana-Farber Cancer Institute, Inc., priority 2007, published 2019).
Entries after “also recorded” stand apart in the source; their conditions may differ.

Assays:
[1] = test system: KU812F-luc-neo target cells; assay: CS-BLI killing of KU812F-luc-neo target cells by IL-2 stimulated PBMCs; assay type: cell-based; conditions: for effect of concurrent drug exposure of co-culture on activity of PBMCs to kill tumor targets: 2 μM CC5013, 2 μM CC4047, 20 nM PS-341 or 100 nM Dex during co-culture; for effect of drug pretreatment of PBMCs on activity of PBMCs to kill tumor targets: PBMCs pretreated 24 hrs with IL-2 plus 1 μM CC5013, 1 μM CC4047, 10 nM PS-341 or 50 nM Dexamethasone, washed
Procedure: (§1) PBMCs were isolated from a healthy donor, stimulated for 24 hrs with 10 ng/mL of IL-2 and then combined in culture with 5000 tumor target cells. The human multiple myeloma line, MM.1S-GFP-luc (FIG. 27A), was used as target cells and combined with PBMCs at 1:1, 1:5, 1:10, 1:20 and 1:40 ratios. The basophilic leukemia line, KU812F-luc-neo (FIG. 27B), was used as target cells and combined with PBMCs from the same donor at 1:1, 1:5, 1:10, 1:20 and 1:40 ratios. Viability of tumor cells was assessed using bioluminescence detection after the addition of luciferin substrate following 4 hours of co-culture with immune effector cells.
PBMCs were isolated from a healthy donor, stimulated for 24 hrs with IL-2 with either 1 μM CC5013 (FIG. 30A), 1 μM CC4047 (FIG. 30B), 10 nM PS-341 (FIG. 30C), or 50 nM Dexamethasone (FIG. 30D). PBMCs were washed and combined in culture with KU812F-luc-neo target cells at the 1:1, 1:2.5, 1:5, 1:10, 1:20 and 1:40 target to effector ratios.
PBMCs were isolated from a healthy donor, stimulated for 24 hrs with IL-2. PBMCs were then washed and combined in culture with KU812F-luc-neo target cells at the 1:1, 1:2.5, 1:5, 1:10, 1:20 and 1:40 target to effector ratios in the presence or absence 2 μM CC5013 (FIG. 33A), 2 μM CC4047 (FIG. 33B), 20 nM PS-341 (FIG. 33C), or 100 nM Dex (FIG. 33D).

[2] = test system: MM.1S-GFP-luc target cells; assay: CS-BLI killing of MM.1S-GFP-luc target cells by IL-2 stimulated PBMCs; assay type: cell-based, human; conditions: for effect of concurrent drug exposure of co-culture on activity of PBMCs to kill tumor targets: 2 μM CC5013, 2 μM CC4047, 20 nM PS-341 or 100 nM Dex during co-culture; for effect of concurrent drug exposure of co-culture on activity of PBMCs to kill tumor targets / effect of drug pretreatment of PBMCs on activity of PBMCs to kill tumor targets: MM.1S-GFP-luc targets; for effect of drug pretreatment of PBMCs on activity of PBMCs to kill tumor targets: PBMCs pretreated 24 hrs with IL-2 plus 1 μM CC5013, 1 μM CC4047, 10 nM PS-341 or 50 nM Dexamethasone, washed
Procedure: as §1
PBMCs were isolated from a healthy donor, stimulated for 24 hrs with IL-2 in the presence of either 1 μM CC5013 (FIG. 29A), 1 μM CC4047 (FIG. 29B), 10 nM PS-341 (FIG. 29C), or 50 nM Dexamethasone (FIG. 29D). PBMCs were washed and combined in culture with MM.1S-GFP-luc target cells at the 1:1, 1:2.5, 1:5, 1:10, 1:20 and 1:40 target to effector ratios.
PBMCs were isolated from a healthy donor, stimulated for 24 hrs with IL-2 in the presence or absence of 1 μM CC4047. MM.1S-GFP-luc cells were cultured in the presence or absence of 1 μM CC4047. PBMCs and MM.1S-GFP-luc cells were washed to remove drug and combined in culture with target MM.1S-GFP-luc target cells, either pretreated with 1 μM CC4047 or without, and combined at 1:1, 1:2.5, 1:5, 1:10, 1:20 and 1:40 target to effector ratios in the absence of drug.
PBMCs were isolated from a healthy donor, stimulated for 24 hrs with IL-2. PBMCs were combined in culture with MM.1S-GFP-luc target cells at the 1:1, 1:2.5, 1:5, 1:10, 1:20 and 1:40 target to effector ratios in the presence or absence of 2 μM CC5013 (FIG. 32A), 2 μM CC4047 (FIG. 32B), 20 nM PS-341 (FIG. 32C), or 100 nM Dex (FIG. 32D) during co-culture.

[3] = test system: KU812F-luc leukemia cells; assay: CS-BLI drug sensitivity of KU812F-luc leukemia cells in presence vs absence of HS-5 BMSCs; assay type: cell-based; conditions: presence vs absence of HS-5 BMSCs (10,000 per well)
Description: In another set of experiments, Applicants tested and observed similar protective/sensitization effect of stroma cell on KU812F-luc cells on various drugs (data not shown).
(§2) Applicants expanded the application of in vitro compartment-specific bioluminescence imaging assays beyond the MM cells to other tumor models, namely a few leukemic cell lines. Applicants specifically tested luciferase-expressing K562-luc-neo and KU812F-luc-neo leukemic cells against standard anti-leukemia agents, including AraC and Doxo, in the presence vs. absence of HS-5 stromal cells (FIG. 7A and FIG. 7B).

[4] = test system: K562-luc leukemia cells; assay: CS-BLI drug sensitivity of K562-luc leukemia cells in presence vs absence of HS-5 BMSCs; assay type: cell-based; conditions: presence vs absence of HS-5 BMSCs (10,000 per well)
Description: as §2

[5] = test system: MM-1R-GFP-luc myeloma cells; assay: CS-BLI drug sensitivity of MM-1R-GFP-luc cells in presence vs absence of stromal cells; conditions: MM-1R-GFP-luc (Dex-resistant), presence vs absence of HS-5 BMSCs (10,000 per well)
[6] = test system: MM-1S-GFP-luc myeloma cells; assay: CS-BLI drug sensitivity of MM-1S-GFP-luc cells in presence vs absence of stromal cells; assay type: cell-based, human; conditions: presence vs absence of HS-5 BMSCs (10,000 per well)
Procedure: Luciferin (7.5 mg/mL; Xenogen Corp, Alameda, Calif.) was added at the volume stated in each experiment. Cell viability and the precise cell counts were established by Trypan blue exclusion assay immediately before plating of the cells. Compartment-specific bioluminescence emitted by individual wells of these plates was measured with two different bioluminescence imaging modalities, namely a Xenogen IVIS® Imaging System (FIG. 1A and FIG. 1B) and a standard luminometer plate reader—Luminoskan luminometer (Labsystems, MA) (FIG. 1C). The results with each method were analyzed for the linearity of the bioluminescent signal vs. cell number using the Living Image® software (Xenogen Corp, Alameda Calif.).

[7] = test system: Multiple myeloma (MM) cells; conditions: cited from earlier work
[8] = test system: MM; conditions: cited from earlier work
[9] = test system: A375-luc-neo cells; assay: CS-BLI drug sensitivity of A375-luc-neo cells alone or with HS-5 BMSCs; assay type: cell-based; conditions: A375-luc-neo alone or with HS-5 BMSCs (10,000/well), 48 hrs
Procedure: (§3) MDA-MB-231met-luc-neo (FIG. 18A, FIG. 18B), A375-luc-neo (FIG. 18C, FIG. 18D) and FRO-luc-neo (FIG. 18E, FIG. 18F) cells were plated either alone or mixed with HS-5 BMSCs (10,000 /well) and treated the following day. The cultures of tumor cells and their co-cultures with BMSCs were incubated for an additional 48 hrs.

[10] = test system: MDA-MB-231met-luc-neo cells; assay: CS-BLI drug sensitivity of MDA-MB-231met-luc-neo cells alone or with HS-5 BMSCs; assay type: cell-based; conditions: MDA-MB-231met-luc-neo alone or with HS-5 BMSCs (10,000/well), 48 hrs
Procedure: as §3

[11] = test system: FRO-luc-neo cells; assay: CS-BLI drug sensitivity of FRO-luc-neo cells alone or with HS-5 BMSCs; assay type: cell-based; conditions: FRO-luc-neo alone or with HS-5 BMSCs (10,000/well), 48 hrs
Procedure: as §3

| Structure (SMILES) | effect of concurrent drug exposure of co-culture on activity of PBMCs to kill tumor targets [1] | effect of drug pretreatment of PBMCs on activity of PBMCs to kill tumor targets [1] | effect of concurrent drug exposure of co-culture on activity of PBMCs to kill tumor targets [2] | effect of drug pretreatment of PBMCs on activity of PBMCs to kill tumor targets [2] | effect of BMSC co-culture on tumor cell response to drug (protection) [3] | effect of BMSC co-culture on tumor cell response to drug (protection) [4] | also measured |
| --- | --- | --- | --- | --- | --- | --- | --- |
| Nc1cccc2c1CN(C1CCC(=O)NC1=O)C2=O (stereo not shown) [CC5013] | significant difference increasing the activity | did not have a significant impact | had an increase in the activity | did not have a significant impact | – | – | – |
| Cc1cn(-c2cc(NC(=O)c3ccc(C)c(Nc4nccc(-c5cccnc5)n4)c3)cc(C(F)(F)F)c2)cn1 [nilotinib] | – | – | – | – | confer protection | do not confer protection | – |
| CC(C)C[C@H](NC(=O)[C@H](Cc1ccccc1)NC(=O)c1cnccn1)B(O)O [PS-341, bortezomib] | significant difference blocking the activity | did have a significant impact on blocking | decreased activity | did have a significant impact on blocking | – | – | effect of BMSC co-culture on tumor cell response to drug (protection) [5]: confer no protection; effect of BMSC co-culture on tumor cell response to drug (protection) ([5]; listed as bortezomib): did not abrogate the responsiveness; effect of BMSC co-culture on tumor cell response to drug (protection) ([6]; listed as bortezomib): did not abrogate the responsiveness |
| Nc1cccc2c1CN(C1CCC(=O)NC1=O)C2=O (stereo not shown) [lenalidomide] | – | – | – | – | – | – | single-agent in vitro anti-MM activity [7]: modest; anti-MM activity in vivo [8]: potent |
| CC1=C2C(=O)[C@H]3[C@@H](CC=C4C[C@@H](O)CC[C@@]43C)[C@@H]2CC[C@]12O[C@@H]1C[C@H](C)CN[C@H]1[C@H]2C [11-keto-cyclopamine] | – | – | – | – | – | – | effect of BMSC co-culture on tumor cell response to drug (protection) [5]: conferred protection; effect of BMSC co-culture on tumor cell response to drug (protection) [6]: conferred protection |
| Nc1cccc2c1C(=O)N(C1CCC(=O)NC1=O)C2=O (stereo not shown) [CC4047] | significant difference increasing the activity | did have a significant impact on increasing | increased activity | did not have a significant impact; also recorded: no significant increasing in activity | – | – | effect of drug pretreatment of target myeloma cells on killing by PBMCs ([2]; MM.1S-GFP-luc cells pretreated with 1 μM CC4047, washed): significant increase |
| Nc1ccn([C@@H]2O[C@H](CO)[C@@H](O)[C@@H]2O)c(=O)n1 [AraC] | – | – | – | – | decreased the responsiveness; also recorded: confer protection | protection was observed | effect of BMSC co-culture on tumor cell response to drug (protection) [9]: considerable level of protection; effect of BMSC co-culture on tumor cell response to drug (protection) [10]: modest protection; effect of BMSC co-culture on tumor cell response to drug (protection) [11]: no protection; effect of BMSC co-culture on tumor cell response to drug (protection) ([3]; listed as Ara-C): develop stromal-derived resistance |
| Cc1ccc(NC(=O)c2ccc(CN3CCN(C)CC3)cc2)cc1Nc1nccc(-c2cccnc2)n1 [Imatinib, imatinib] | – | – | – | – | confer protection | do not confer protection | effect of BMSC co-culture on tumor cell response to drug (protection) ([3]; listed as imatinib): develop stromal-derived resistance; also recorded: decreased the responsiveness; effect of BMSC co-culture on tumor cell response to drug (protection) ([4]; listed as imatinib): do not exhibit such phenotype |
| O=C1CCC(N2C(=O)c3ccccc3C2=O)C(=O)N1 (stereo not shown) [thalidomide] | – | – | – | – | – | – | single-agent in vitro anti-MM activity [7]: modest; anti-MM activity in vivo [8]: potent |
